Reference: patent US20250002475A1 (EPICS THERAPEUTICS, priority 2023, published 2025)
pIC50: −log10 of the molar value.

Target: T1, recombinant METTL3/METTL14 complex (Homo sapiens, UniProt Q86U44)
T1 construct: purchased Active Motif 311970; host or cells: Sf9 cells
Test: METTL3/14 Scintillation Proximity Assay (SPA), RNA methyltransferase activity
Type: biochemical
Settings: 5.31 nM METTL3/14 complex, 250 nM RNA substrate, 1 μM 3H-SAM, 90 min; for compounds marked * best of the two separated forms

T1 sequence (Q86U44 whole entry): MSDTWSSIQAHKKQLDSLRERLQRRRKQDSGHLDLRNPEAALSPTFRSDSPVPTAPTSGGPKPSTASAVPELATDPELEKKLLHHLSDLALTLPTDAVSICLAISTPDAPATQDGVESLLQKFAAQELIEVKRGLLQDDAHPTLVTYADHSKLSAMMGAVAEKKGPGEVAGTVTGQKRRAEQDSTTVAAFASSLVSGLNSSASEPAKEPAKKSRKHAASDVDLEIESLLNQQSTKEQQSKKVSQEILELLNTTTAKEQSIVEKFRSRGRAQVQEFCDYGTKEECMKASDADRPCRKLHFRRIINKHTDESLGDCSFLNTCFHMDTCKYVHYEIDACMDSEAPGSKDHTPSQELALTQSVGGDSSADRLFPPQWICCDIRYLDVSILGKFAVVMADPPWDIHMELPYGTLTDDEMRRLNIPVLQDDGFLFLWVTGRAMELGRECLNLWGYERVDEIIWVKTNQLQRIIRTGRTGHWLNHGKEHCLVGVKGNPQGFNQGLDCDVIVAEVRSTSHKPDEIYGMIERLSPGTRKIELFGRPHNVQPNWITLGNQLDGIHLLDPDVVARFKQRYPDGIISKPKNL
T1 sequence (Q9HCE5 whole entry partner): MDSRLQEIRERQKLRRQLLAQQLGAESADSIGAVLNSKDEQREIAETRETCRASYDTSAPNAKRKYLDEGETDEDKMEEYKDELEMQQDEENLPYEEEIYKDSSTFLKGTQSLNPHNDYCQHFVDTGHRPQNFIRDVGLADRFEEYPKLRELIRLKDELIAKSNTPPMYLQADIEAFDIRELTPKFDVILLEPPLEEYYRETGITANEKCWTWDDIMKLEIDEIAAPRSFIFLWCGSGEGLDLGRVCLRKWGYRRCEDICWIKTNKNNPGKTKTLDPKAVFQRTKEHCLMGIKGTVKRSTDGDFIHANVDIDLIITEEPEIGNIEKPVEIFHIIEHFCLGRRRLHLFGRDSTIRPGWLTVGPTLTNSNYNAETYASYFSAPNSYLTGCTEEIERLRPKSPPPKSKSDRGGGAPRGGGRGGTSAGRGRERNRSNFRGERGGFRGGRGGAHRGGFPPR

pIC50 | Structure (SMILES)
≥ 7.30 | COc1cc(-c2cn(Cc3ccc(N4CCCC(N5CC6(CCC6)C5)C4)nn3)nn2)c2cn[nH]c2c1 (centres unmarked) [Compound 035, 4-(1-((6-(3-(2-azaspiro[3.3]heptan-2-yl)piperidin-1-yl)pyridazin-3-yl)methyl)-1H-1,2,3-triazol-4-yl)-6-methoxy-1H-indazole]
≥ 7.30 | O=c1cc(-c2cn(Cc3ccc(N4CCC[C@@H](NCC5CCC5)C4)cn3)nn2)nc2ccccn12 [Compound 127, (R)-2-(1-((5-(3-((cyclobutylmethyl)amino)piperidin-1-yl)pyridin-2-yl)methyl)-1H-1,2,3-triazol-4-yl)-4H-pyrido[1,2-a]pyrimidin-4-one]
≥ 7.30 | COc1cnc(C#N)c(-c2cn(C(C)n3ccc(N4CCC[C@@H](NCC5CCC5)C4)cc3=O)nn2)c1 (single isomer, unassigned) [Compound 109]
≥ 7.30 | COc1cc(-c2cn(Cc3ncc(N4CCCC(NCC5CCC5)C4)s3)nn2)c2cn[nH]c2c1 (centres unmarked) [Compound 049, N-(cyclobutylmethyl)-1-(2-((4-(6-methoxy-1H-indazol-4-yl)-1H-1,2,3-triazol-1-yl)methyl)thiazol-5-yl)piperidin-3-amine]
≥ 7.30 | CCOc1cncc(-c2cn(C(C)n3ccc(N4CCC[C@@H](NCC5CCC5)C4)cc3=O)nn2)c1 (mixture of isomers) [Compound 103, 4-((R)-3-((cyclobutylmethyl)amino)piperidin-1-yl)-1-(1-(4-(5-ethoxypyridin-3-yl)-1H-1,2,3-triazol-1-yl)ethyl)pyridin-2(1H)-one]
≥ 7.30 | CNc1cnnc(-c2cn(C(C)n3ccc(N4CCC[C@@H](NCC5CCC5)C4)cc3=O)nn2)c1 (mixture of isomers) [Compound 122, 4-((R)-3-((cyclobutylmethyl)amino)piperidin-1-yl)-1-(1-(4-(5-(methylamino)pyridazin-3-yl)-1H-1,2,3-triazol-1-yl)ethyl)pyridin-2(1H)-one]
≥ 7.30 | COc1cncc(-c2cn(C(C)n3ccc(N4CCC[C@@H](NCC5CCC5)C4)cc3=O)nn2)c1C (stereo partly drawn) [Compound 108, 4-((R)-3-((cyclobutylmethyl)amino)piperidin-1-yl)-1-(1-(4-(5-methoxy-4-methylpyridin-3-yl)-1H-1,2,3-triazol-1-yl)ethyl)pyridin-2(1H)-one]
≥ 7.30 | COc1cncc(-c2cn(C(c3ccc(N4CCC[C@@H](NCC5CCC5)C4)nn3)C(F)(F)F)nn2)c1 (single isomer, unassigned) [Compound 064]
≥ 7.30 | COc1cncc(-c2cn(C(c3ccc(N4CCC[C@@H](NCC5CCC5)C4)nn3)C3CC3)nn2)c1 (single isomer, unassigned) [Compound 084]
≥ 7.30 | COc1cnnc(-c2cn(Cc3ccc(N4CCC[C@@H](NCC5CCC5)C4)cn3)nn2)c1 [Compound 118, (R)-N-(cyclobutylmethyl)-1-(6-((4-(5-methoxypyridazin-3-yl)-1H-1,2,3-triazol-1-yl)methyl)pyridin-3-yl)piperidin-3-amine]
≥ 7.30 | COc1cncc(-c2nnn(C(C)n3ccc(N4CCC[C@@H](NCC5CCC5)C4)cc3=O)n2)c1 (mixture of isomers) [Compound 106, 4-((R)-3-((cyclobutylmethyl)amino)piperidin-1-yl)-1-(1-(5-(5-methoxypyridin-3-yl)-2H-tetrazol-2-yl)ethyl)pyridin-2(1H)-one]
≥ 7.30 | CC(C(=O)Nc1cncc(N2CCCC2)c1)c1ccc(N2CCC[C@@H](NCC3CCC3)C2)cn1 (single isomer, unassigned) [Compound 264]
≥ 7.30 | Cc1cc(N2CCC[C@@H](NCC3CC3)C2)cc(=O)n1Cn1cc(-c2cncc(N(C)C)c2)nn1 [Compound 163]
6.30 to 7.30 | COc1cncc(-c2nnn(Cc3ccc(N4CCC[C@@H](NCC5CCC5)C4)cc3)n2)c1 [Compound 145, (R)-N-(cyclobutylmethyl)-1-(4-((5-(5-methoxypyridin-3-yl)-2H-tetrazol-2-yl)methyl)phenyl)piperidin-3-amine]
≥ 7.30 | COc1cncc(-c2cc(C(C)n3ccc(N4CCC[C@@H](NCC5CCC5)C4)cc3=O)on2)c1 (mixture of isomers) [Compound 130, 4-((R)-3-((cyclobutylmethyl)amino)piperidin-1-yl)-1-(1-(3-(5-methoxypyridin-3-yl)isoxazol-5-yl)ethyl)pyridin-2(1H)-one]
≥ 7.30 | O=C(Cc1ccc(N2CCC[C@@H](NCC3CCC3)C2)cn1)Nc1cncc(N2CCCC2)n1 [Compound 277, (R)-2-(5-(3-((cyclobutylmethyl)amino)piperidin-1-yl)pyridin-2-yl)-N-(6-(pyrrolidin-1-yl)pyrazin-2-yl)acetamide]
6.30 to 7.30 | CC(NC(=O)c1cc(=O)n2ccccc2n1)c1ccc(N2CCC[C@@H](NCC3CCC3)C2)nc1 (stereo partly drawn) [Compound 072, N-(1-(6-((R)-3-((cyclobutylmethyl)amino)piperidin-1-yl)pyridin-3-yl)ethyl)-4-oxo-4H-pyrido[1,2-a]pyrimidine-2-carboxamide]
≥ 7.30 | COc1cc(-c2cn(Cc3ccc(N4CCC[C@@H](NC(C)C5CC5)C4)nn3)nn2)c2cn[nH]c2c1 (single isomer, unassigned) [Compound 045]
≥ 7.30 | COc1cncc(-c2cn(Cn3ncc(N4CCC[C@@H](NCC5CCC5)C4)cc3=O)nn2)c1 [Compound 062, (R)-5-(3-((cyclobutylmethyl)amino)piperidin-1-yl)-2-((4-(5-methoxypyridin-3-yl)-1H-1,2,3-triazol-1-yl)methyl)pyridazin-3(2H)-one]

The next lines start with the compound.

Structure (SMILES) | pIC50
CC(n1cc(-c2cncc(N(C)C(F)(F)F)c2)nn1)n1ccc(N2CCC[C@@H](NCC3CC3)C2)cc1=O (single isomer, unassigned) [Compound 236] | ≥ 7.30
CC(NC(=O)c1cc(=O)n2ccccc2n1)c1ccc(N2CCC[C@@H](NCC3CC3)C2)cn1 (mixture of isomers) [Compound 112, N-(1-(5-((R)-3-((cyclopropylmethyl)amino)piperidin-1-Yl)pyridin-2-yl)ethyl) -4-oxo-4H-pyrido[1,2-a]pyrimidine-2-carboxamide] | ≥ 7.30
COc1cncc(-c2cn(Cc3ccc(N4CCCC(C)(NCC5CCC5)C4)nn3)nn2)c1 (centres unmarked) [Compound 053, N-(cyclobutylmethyl)-1-(6-((4-(5-methoxypyridin-3-yl)-1H-1,2,3-triazol-1-yl)methyl)pyridazin-3-yl)-3-methylpiperidin-3-amine] | 6.30 to 7.30
COc1cncc(-c2cn(C(C)n3ccc(N4CCC[C@@H](NCC5CCC5)C4)cc3=O)nn2)n1 (single isomer, unassigned) [Compound 105] | ≥ 7.30
COc1cnnc(-c2cn(C(C)c3ccc(N4CCC[C@@H](NCC5CCC5)C4)nn3)nn2)c1 (single isomer, unassigned) [Compound 137] | 6.30 to 7.30
CC(C(=O)Nc1cc(=O)n2ccccc2n1)c1ccc(N2CCC[C@@H](NCC3CCC3)C2)cn1 (stereo partly drawn) [Compound 265, 2-(5-((R)-3-((cyclobutylmethyl)amino)piperidin-1-yl)pyridin-2-yl)-N-(4-oxo-4H-pyrido[1,2-a]pyrimidin-2-yl)propanamide] | ≥ 7.30
CC(C(=O)Nc1cncc(N2CCCC2)n1)c1ccc(N2CCC[C@@H](NCC3CCC3)C2)cn1 (stereo partly drawn) [Compound 274, 2-(5-((R)-3-((cyclobutylmethyl)amino)piperidin-1-yl)pyridin-2-yl)-N-(6-(pyrrolidin-1-yl)pyrazin-2-yl)propanamide] | ≥ 7.30
CC(n1cc(-c2cncc(Cl)c2)nn1)n1ccc(N2CCC[C@@H](NCC3CCC3)C2)cc1=O (mixture of isomers) [Compound 078, 1-(1-(4-(5-chloropyridin-3-yl)-1H-1,2,3-triazol-1-yl)ethyl)-4-((R)-3-((cyclobutylmethyl)amino)piperidin-1-yl)pyridin-2(1H)-one] | ≥ 7.30
C[C@H](NC(=O)c1cc(=O)n2ccccc2n1)c1ccc(N2CCC[C@@H](NCC3CCC3)C2)cc1 [Compound 074, N-((S)-1-(4-((R)-3-((cyclobutylmethyl)amino)piperidin-1-yl)phenyl)ethyl)-4-oxo-4H-pyrido[1,2-a]pyrimidine-2-carboxamide] | ≥ 7.30
CNc1cncc(-c2cn(C(C)n3ccc(N4CCC[C@@H](NCC5CCC5)C4)cc3=O)nn2)c1 (mixture of isomers) [Compound 096, 4-((R)-3-((cyclobutylmethyl)amino)piperidin-1-yl)-1-(1-(4-(5-(methylamino)pyridin-3-yl)-1H-1,2,3-triazol-1-yl)ethyl)pyridin-2(1H)-one] | ≥ 7.30
Cc1cncc(-c2cn(C(C)n3ccc(N4CCC[C@@H](NCC5CC5)C4)cc3=O)nn2)n1 (single isomer, unassigned) [Compound 255] | 6.30 to 7.30
O=C(Nc1cc2ccccc2c(=O)[nH]1)C1(c2ccc(N3CCC[C@@H](NCC4CCC4)C3)cn2)COC1 [Compound 302, (R)-3-(5-(3-((cyclobutylmethyl)amino)piperidin-1-yl)pyridin-2-yl)-N-(1-oxo-1,2-dihydroisoquinolin-3-yl)oxetane-3-carboxamide] | ≥ 7.30
COc1cncc(-n2cc(C(C)n3ccc(N4CCC[C@@H](NCC5CCC5)C4)cc3=O)nn2)c1 (mixture of isomers) [Compound 132, 4-((R)-3-((cyclobutylmethyl)amino)piperidin-1-yl)-1-(1-(1-(5-methoxypyridin-3-yl)-1H-1,2,3-triazol-4-yl)ethyl)pyridin-2(1H)-one] | ≥ 7.30
COc1cc(NC(=O)C2(c3ccc(N4CCC[C@@H](NCC5CCC5)C4)cn3)COC2)c2cn[nH]c2c1 [Compound 273, (R)-3-(5-(3-((cyclobutylmethyl)amino)piperidin-1-yl)pyridin-2-yl)-N-(6-methoxy-1H-indazol-4-yl)oxetane-3-carboxamide] | ≥ 7.30
O=C(NCc1ccc(N2CCC[C@@H](NCC3CC3)C2)nn1)c1cc(=O)n2ccccc2n1 [Compound 016, (R)-N-((6-(3-((cyclopropylmethyl)amino)piperidin-1-yl)pyridazin-3-yl)methyl)-4-oxo-4H-pyrido[1,2-a]pyrimidine-2-carboxamide] | 6.30 to 7.30
COc1cncc(-n2cc(C(C)n3ccc(N4CCC[C@@H](NCC5CCC5)C4)cc3=O)cn2)c1 (mixture of isomers) [Compound 120, 4-((R)-3-((cyclobutylmethyl)amino)piperidin-1-yl)-1-(1-(1-(5-methoxypyridin-3-yl)-1H-pyrazol-4-yl)ethyl)pyridin-2(1H)-one] | ≥ 7.30
